PubChem BioAssay AID687022 (Broad Institute, 2013)
Calls of active or inactive are those of the source.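 Rule for the calls: active = Fitted curve of melting temperature shift crosses the 1.0 threshold at or below the sample's highest valid tested concentration; inconclusive = Flat fit with activity 30 to 70, or invalid fit; inactive = Opposite direction, flat within 30, or no crossing.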

Target: Fibroblast growth factor 22 (Homo sapiens) (UniProt Q9HCT0)
Assay: FGF22 ligand-induced thermal stabilization – biophysical, thermal shift, cherry-pick, FGF22 synaptogenesis inhibitor project, dose response (AID 687022)
Settings: recombinant FGF22 thermal shift, SYPRO orange melting

Chain of Fibroblast growth factor 22 (Homo sapiens) (Q9HCT0 whole entry, looked up): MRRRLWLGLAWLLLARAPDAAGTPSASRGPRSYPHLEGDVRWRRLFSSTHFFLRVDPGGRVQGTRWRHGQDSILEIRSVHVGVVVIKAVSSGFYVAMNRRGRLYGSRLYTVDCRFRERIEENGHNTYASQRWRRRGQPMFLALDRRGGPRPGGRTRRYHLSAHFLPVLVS

Row | SMILES | AbsAC1 (concentration giving Tm-shift threshold 1.0)
1 | CCOc1ccc(NC(=O)CC2C(=O)N(c3ccc(OC)cc3)C(=S)N2Cc2ccccn2)cc1 (stereo not drawn) | 3.11 µM
2 | COC(=O)C[C@H]1CC[C@@H]2[C@@H](COc3ccc(NC(=O)Nc4ccc(C#N)cc4)cc3C(=O)N2C)O1 | 5.43 µM
3 | CSCCC(NS(=O)(=O)c1ccc(Cl)c(Cl)c1)C(=O)O (stereo not drawn) | > 38 µM (inactive)
4 | C[C@H]1CN([C@@H](C)CO)S(=O)(=O)c2ccc(-c3cccc(F)c3)cc2O[C@H]1CN(C)C(=O)Nc1cc(F)ccc1F | 6.67 µM
5 | Cc1ccc(CCNc2ncnc(Cl)c2N)cc1 | 6.55 µM
6 | CCOC(=O)N1CCN(C(=O)CCCCCn2c(=S)[nH]c3ccsc3c2=O)CC1 | 13.8 µM
7 | COC(=O)C1=C(CS(=O)(=O)c2cc(OC)ccc2OC)NC(=O)NC1c1ccc(O)c(OC)c1 (stereo not drawn) | 3.09 µM
8 | O=c1c(O)c(-c2cc(O)c(O)c(O)c2)oc2cc(O)cc(O)c12 | 4.37 µM
9 | COc1ccc(-c2ccc([C@H]3[C@H]4CN(C(=O)c5ccc6c(c5)OCO6)CCCCN4[C@H]3CO)cc2)cc1 | 15.9 µM
10 | O=Cc1cc(OCc2ccccc2)ccc1[B-](F)(F)F | 4.64 µM
11 | CCN1C(=O)C(CC(=O)Nc2ccc(OC)cc2)N(Cc2ccc3c(c2)OCO3)C1=S (stereo not drawn) | 4.05 µM
12 | O=c1c2ccccc2[nH]c2ccc(F)cc12 | > 38 µM (inactive)
13 | CCCC(=O)c1ccc(OCc2cn(CC(=O)c3ccc(O)cc3)nn2)cc1 | 8.45 µM
14 | O=S1(=O)N=C(N(Cc2cccs2)c2ccc(O)cc2)c2ccccc21 | 1.47 µM
15 | CC1(C(=O)NS(=O)(=O)c2ccc(Cl)cc2)CCN1C(=O)Cc1ccc(Cl)cc1Cl (stereo not drawn) | > 10 µM (inactive)
16 | O=S(=O)(ON(c1ccccc1)S(=O)(=O)c1ccccc1)c1ccccc1 | 14 µM
17 | CO[C@@H](CN(C)S(=O)(=O)c1cccc(Cl)c1)[C@@H](C)CN([C@H](C)CO)S(=O)(=O)c1cccc(Cl)c1 | 10.3 µM
18 | CCN(CC)c1ccc2cc(S(=O)(=O)c3ccc(Cl)cc3)c(=O)oc2c1 | 5.6 µM
19 | CC1(C)CCC(=O)N2CC[C@H]3C[C@H](OC(=O)Nc4ccccc4)C[C@@H]1[C@H]32 | 12 µM
20 | COc1ccc(/C=N/NC(=O)c2ccc(NS(=O)(=O)c3cccs3)cc2)cc1 | 7.28 µM
21 | CO[C@H](CN(C)S(=O)(=O)c1cccc(Cl)c1)[C@H](C)CN([C@H](C)CO)S(=O)(=O)c1cccc(Cl)c1 | 14.1 µM
22 | Nc1nnc(CC(=O)N/N=C/c2cc([N+](=O)[O-])cc(Br)c2O)s1 | 4.99 µM
23 | CCn1ccnc1CN(C)C(=O)c1ccc2nc(Cc3ccc(OC)cc3)oc2c1 | 11.9 µM

Now from value to compound:

Row | AbsAC1 (concentration giving Tm-shift threshold 1.0) | SMILES
24 | 12.7 µM | O=C(Nc1ccc(S(=O)(=O)N2CCOCC2)cc1)c1ccc(F)cc1
25 | 20.7 µM | O=C(Nc1nc(=O)n(C(=O)C2CC2)s1)c1ccccc1
26 | 9.32 µM | Cc1cc(C)n(-c2ccc(C(=O)Nc3ccc(S(=O)(=O)N(C)C)cc3)cc2)n1
27 | 1.72 µM | COc1cccc(C(=O)Nc2cccc(NC(=O)c3cccs3)c2)c1
28 | 17.1 µM | Cc1onc(-c2ccccc2)c1C(=O)Nc1ncc([N+](=O)[O-])s1
29 | > 38 µM (inactive) | CC(C)(C)[S@@](=O)N1Cc2cc(C(=O)NCc3ccccc3F)nc(-c3cccc(-c4ccncc4)c3)c2[C@H]1CCO
30 | 5.31 µM | O=[N+]([O-])c1ccc(Nc2ccccc2)nc1
31 | 18.1 µM | O=C(NCC[C@@H]1CC[C@@H](NC(=O)Nc2cc(F)ccc2F)[C@@H](CO)O1)Nc1ccc(F)cc1
32 | 34.9 µM | O=C(Nc1ccc(Cl)cc1)N[C@H]1CC[C@H](CCNC(=O)c2cc(Cl)cc(Cl)c2)O[C@@H]1CO
33 | 14 µM | O=C(N/N=C/c1c[nH]c2ccccc12)C1CC1c1ccccc1 (stereo not drawn)
34 | 8.51 µM | O=C(N/N=C/c1ccncc1)c1cccc(N/N=C/c2ccncc2)c1
35 | 30.3 µM | N#Cc1c(-c2ccccc2)nc(-c2ccncc2)[nH]c1=O
36 | 2.97 µM | COc1cccc(NC(=O)N(C)C[C@@H]2Oc3cc(-c4ccccc4F)ccc3S(=O)(=O)N([C@@H](C)CO)C[C@@H]2C)c1
37 | 30.5 µM | COc1ccccc1CNC(=O)C[C@H]1CC[C@@H]2[C@H](COC[C@H](O)CN2C(=O)Nc2ccc(Cl)cc2)O1
38 | 4.02 µM | COc1ccccc1NC(=O)c1ccc(NC(=O)c2ccc(=O)[nH]c2)cc1
39 | 35.4 µM | C[C@H](CO)N1C[C@H](C)[C@@H](CN(C)C(=O)C2CC2)OCc2ccccc2-c2ccccc2C1=O
40 | 10.4 µM | COc1ccc(NS(=O)(=O)c2cccc(C(=O)NNC(=O)c3ccccc3O)c2)cc1
41 | > 42 µM (inactive) | C[C@H](CO)N1C[C@H](C)[C@@H](CN(C)Cc2ccc(C(=O)O)cc2)Oc2cc(/C=C/c3ccccc3)ccc2S1(=O)=O
42 | 32.7 µM | O=C(NN=Cc1ccc(O)cc1O)c1ccccc1NS(=O)(=O)c1cccs1
43 | 6.85 µM | Nc1ccc(C(=O)Nc2ccc(OC(F)(F)C(F)F)c(NC(=O)c3ccc(N)cc3)c2)cc1
44 | 32 µM | COc1ccccc1NC(=O)N[C@@H]1CC[C@H](CCn2cc(-c3ccccc3OC)nn2)O[C@@H]1CO
45 | 11.7 µM | O=C(NC1CC1)c1cccc(NC(=O)c2cnn(-c3ccccc3)n2)c1
46 | 3.59 µM | O=C(N/N=C/c1ccc(OCc2ccccc2)cc1)c1ccc(O)cc1
47 | 13 µM | CCOc1ccc(-c2cc(C(=O)N/N=C/c3cccnc3)c3ccccc3n2)cc1
48 | 16.8 µM | CN1C(=O)c2cc(NC(=O)c3cccc(F)c3)ccc2OC[C@@H]2O[C@H](CC(=O)NCC3CCCCC3)CC[C@@H]21
